Source: patent publication US20240287138A1, “CYCLIC PEPTIDES FOR INHIBITING TNF RECEPTOR 1 ACTIVITY” (Merck Sharp & Dohme LLC, priority 2023, published 2024)
Numbered stars: 1 amine (or outer) side, 2 acyl side, 3 side chain; on linkers, the order of the positions; unused ones are H or OH. Bridge positions count the residues as written; N and C are the ends. Square brackets hold non-standard residues; d marks the D form. Peptide text beside a SMILES is read from it. Phe(4-(4-Ac-piperazinyl)) = CC(=O)N1CCN(c2ccc(C[C@H](N)C(=O)O)cc2)CC1; Trp(βS-Me,7-OMe) = COc1cccc2c([C@H](C)[C@H](N)C(=O)O)c[nH]c12; Trp(1-CH2COOH) = N[C@@H](Cc1cn(CC(=O)O)c2ccccc12)C(=O)O; X50 = C[C@@H](c1ccc(C(=O)O)cc1)[C@H](N[*:1])C(=O)[*:2]; Phe(4-CH2COOH) = N[C@@H](Cc1ccc(CC(=O)O)cc1)C(=O)O; Acbc(cis-1,3) = O=C([C@H]1C[C@@H](N[*:1])C1)[*:2]; Trp(7-CN) = N#Cc1cccc2c(C[C@H](N)C(=O)O)c[nH]c12; Trp(7-Cl) = N[C@@H](Cc1c[nH]c2c(Cl)cccc12)C(=O)O; Phe(4-CONH2) = NC(=O)c1ccc(C[C@H](N)C(=O)O)cc1; Phe(4-COOH) = N[C@@H](Cc1ccc(C(=O)O)cc1)C(=O)O; 4Pal(3S-Me) = C[C@@H](c1ccncc1)[C@H](N)C(=O)O; Trp(7-aza) = N[C@@H](Cc1c[nH]c2ncccc12)C(=O)O; X66 = O=C([C@@H](N[*:1])c1cccc(O)c1)[*:2]; Lys(Me3) = C[N+](C)(C)CCCC[C@H](N)C(=O)O; X1 = O=C([C@@H]1CC[C@H](N[*:1])C1)[*:2]; Pip(4-aza) = O=C(O)[C@@H]1CNCCN1; 4Pal = N[C@@H](Cc1ccncc1)C(=O)O; NMeE = CN[C@@H](CCC(=O)O)C(=O)O; dHyp = O=C(O)[C@H]1C[C@H](O)CN1; Cit = NC(=O)NCCC[C@H](N)C(=O)O; Ahp(2) = CCCCC[C@H](N)C(=O)O; hLeu = CC(C)CC[C@H](N)C(=O)O; Pip = O=C(O)[C@@H]1CCCCN1; αMeS = C[C@](N)(CO)C(=O)O; Nle = CCCC[C@H](N)C(=O)O; Sar = CNCC(=O)O

Biological target: T1, TNFα-induced NF-κB signal transduction pathway (TNFR1 signaling) in THP-1 cells (Homo sapiens, UniProt P19438)
T1 sequence (P19438 30-455): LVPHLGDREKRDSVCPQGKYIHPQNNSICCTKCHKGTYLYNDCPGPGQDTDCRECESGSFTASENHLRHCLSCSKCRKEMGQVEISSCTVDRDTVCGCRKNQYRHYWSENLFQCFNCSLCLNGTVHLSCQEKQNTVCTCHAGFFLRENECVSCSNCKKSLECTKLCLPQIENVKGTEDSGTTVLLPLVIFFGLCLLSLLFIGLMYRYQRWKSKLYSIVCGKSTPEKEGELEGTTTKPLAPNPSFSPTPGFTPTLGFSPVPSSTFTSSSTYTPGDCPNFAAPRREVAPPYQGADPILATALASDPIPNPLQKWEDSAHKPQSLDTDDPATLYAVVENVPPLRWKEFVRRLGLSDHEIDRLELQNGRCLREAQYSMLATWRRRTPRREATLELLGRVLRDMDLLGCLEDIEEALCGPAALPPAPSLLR
Assay: THP-1 Lucia NF-κB reporter cell assay, inhibition of TNFα-induced NF-κB signaling
Format: cell-based
Details: THP-1 NF-κB Lucia reporter cells, 10 ng/mL TNFα, 16-18 h, secreted luciferase; read-out: THP-1 IC50
Method: C. Procedure for THP-1 Lucia NF-κB cells
The inhibition of TNFα-induced NF-κB signal transduction pathways was evaluated in THP-1 cells. THP-1 cells harboring NF-κB-inducible Lucia™ reporter gene (InvivoGen, cat. #thp1-nfkb) designed for monitoring NF-κB signal transduction pathway was employed to assess the inhibitory effect macrocyclic peptides on TNFR1 signaling. The cells were cultured in media containing RPMI 1640, 2 mM L-glutamine, 25 mM HEPES, 10% heat-inactivated fetal bovine serum with appropriate selection antibiotics. Assays were performed in media that was devoid of selection antibiotics. For profiling, 125 nL of peptides in DMSO (10 mM) were dispensed into Falcon® 384-well Optilux white/clear flat bottom TC-treated microtest microplate (Corning, cat. #353963) using Echo® 555. […] A suspension of 1 million cells/mL was dispensed at 20 μL/well in a 384-well plate to a density of 20,000 cells/well and pre-incubated with peptides at 37° C. for 1 h. Subsequently, 5 μL of TNF containing media (recombinant human TNFα; R&D Systems USA, cat. #210-TA-005/CF) or TNF-free media (for controls) was added to the wells. The final concentration of TNFα in the assay in 10 ng/mL. After o.n. incubation at 37° C. (16-18 h), 5 μL of supernatant was aspirated and transferred to a 384-well microplate (PerkinElmer, cat. #6007680) for measurement of secreted luciferase activity with 25 μL of QUANTI-Luc™ luminescence assay reagent (InvivoGen, cat. #rep-qlc1) in each well. The luminescence was measured in EnVision® Multimode Plate Reader (PerkinElmer). Dose response curves were analyzed using a 4-parameter logistic model to calculate IC50 values, reported in Table 2, using TIBCO® Spotfire® software employing appropriate Minimum and Maximum controls.

Compound	IC50
CCCC[C@@H]1NC(=O)[C@@H]2CC[C@@H](C2)NC(=O)[C@H]([C@@H](C)c2c[nH]c3c(OC)cccc23)NC(=O)CN(C)C(=O)[C@H](Cc2ccc(C(N)=O)cc2)NC(=O)[C@H](Cc2ccc(C(N)=O)cc2)NC(=O)[C@](C)(CO)NC(=O)[C@H](Cc2c[nH]c3c(C#N)cccc23)NC(=O)[C@H](Cc2ccc(C(=O)O)cc2)NC(=O)[C@H](CC(N)=O)NC(=O)[C@H]2C[C@H](O)CN2C(=O)[C@H](Cc2c[nH]c3ncccc23)NC(=O)[C@H](CCCNC(N)=O)NC(=O)[C@H]([C@@H](C)c2ccc(C(=O)O)cc2)NC1=O [SEQ ID NO. 118] (cyclo([Cit][Trp(7-aza)][dHyp]N[Phe(4-COOH)][Trp(7-CN)][αMeS][Phe(4-CONH2)][Phe(4-CONH2)][Sar][Trp(βS-Me,7-OMe)][X1][Nle][X50]))	2.8 nM
CCCC[C@@H]1NC(=O)CSC[C@@H](C(N)=O)NC(=O)[C@H]([C@@H](C)c2c[nH]c3c(OC)cccc23)NC(=O)CN(C)C(=O)[C@H](c2cccc(O)c2)NC(=O)[C@H](Cc2ccc(C(N)=O)cc2)NC(=O)[C@](C)(CO)NC(=O)[C@H](Cc2c[nH]c3c(Cl)cccc23)NC(=O)[C@H](Cc2ccc(C(=O)O)cc2)NC(=O)[C@H](CC(N)=O)NC(=O)[C@H](CCC(=O)O)N(C)C(=O)[C@H](Cc2cn(CC(=O)O)c3ccccc23)NC(=O)[C@@H]2CNCCN2C(=O)[C@H](Cc2ccncc2)NC1=O [SEQ ID NO. 52] ({CH2CO}-[Nle][4Pal][Pip(4-aza)][Trp(1-CH2COOH)][NMeE]N[Phe(4-COOH)][Trp(7-Cl)][αMeS][Phe(4-CONH2)][X66][Sar][Trp(βS-Me,7-OMe)]C-NH2; thioether N-14)	3.9 nM
CCCCC[C@@H]1NC(=O)[C@@H]2CC[C@@H](C2)NC(=O)[C@H]([C@@H](C)c2c[nH]c3c(OC)cccc23)NC(=O)CN(C)C(=O)[C@H](Cc2ccc(C(N)=O)cc2)NC(=O)[C@H](Cc2ccc(C(N)=O)cc2)NC(=O)[C@](C)(CO)NC(=O)[C@H](Cc2c[nH]c3c(C#N)cccc23)NC(=O)[C@H](Cc2ccc(C(=O)O)cc2)NC(=O)[C@H](CC(N)=O)NC(=O)[C@H]2C[C@H](O)CN2C(=O)[C@H](Cc2c[nH]c3ccccc23)NC(=O)[C@H](CC(=O)O)NC(=O)[C@H]([C@@H](C)c2ccncc2)NC1=O [SEQ ID NO. 55] (cyclo([Ahp(2)][4Pal(3S-Me)]DW[dHyp]N[Phe(4-COOH)][Trp(7-CN)][αMeS][Phe(4-CONH2)][Phe(4-CONH2)][Sar][Trp(βS-Me,7-OMe)][X1]))	1.3 nM
CCCC[C@@H]1NC(=O)[C@@H]2CC[C@@H](C2)NC(=O)[C@H]([C@@H](C)c2c[nH]c3c(OC)cccc23)NC(=O)CN(C)C(=O)[C@H](Cc2ccc(O)cc2)NC(=O)[C@H](Cc2ccc(CC(=O)O)cc2)NC(=O)[C@](C)(CO)NC(=O)[C@H](Cc2c[nH]c3c(Cl)cccc23)NC(=O)[C@H](Cc2ccncc2)NC(=O)[C@H](CC(N)=O)NC(=O)[C@H](CCC(=O)O)N(C)C(=O)[C@H](Cc2c[nH]c3ccccc23)NC(=O)[C@@H]2CNCCN2C(=O)[C@H](Cc2ccncc2)NC1=O [SEQ ID NO. 111] (cyclo([4Pal][Trp(7-Cl)][αMeS][Phe(4-CH2COOH)]Y[Sar][Trp(βS-Me,7-OMe)][X1][Nle][4Pal][Pip(4-aza)]W[NMeE]N))	1.6 nM
COc1cccc2c([C@H](C)[C@@H]3NC(=O)CN(C)C(=O)[C@H](Cc4ccc(O)cc4)NC(=O)[C@H](Cc4ccc(C(=O)O)cc4)NC(=O)[C@](C)(CO)NC(=O)[C@H](Cc4c[nH]c5c(Cl)cccc45)NC(=O)[C@H](Cc4ccncc4)NC(=O)[C@H](CC(N)=O)NC(=O)[C@H](CCC(=O)O)N(C)C(=O)[C@H](Cc4c[nH]c5ccccc45)NC(=O)[C@@H]4CNCCN4C(=O)[C@H](Cc4ccncc4)NC(=O)[C@H](CCC(C)C)NC(=O)[C@@H]4CC[C@@H](C4)NC3=O)c[nH]c12 [SEQ ID NO. 137] (cyclo([4Pal][Trp(7-Cl)][αMeS][Phe(4-COOH)]Y[Sar][Trp(βS-Me,7-OMe)][X1][hLeu][4Pal][Pip(4-aza)]W[NMeE]N))	1.3 nM
CCCC[C@@H]1NC(=O)[C@H]2C[C@H](C2)NC(=O)[C@H]([C@@H](C)c2c[nH]c3c(OC)cccc23)NC(=O)CN(C)C(=O)[C@H](Cc2ccc(O)cc2)NC(=O)[C@H](Cc2ccc(C(=O)O)cc2)NC(=O)[C@](C)(CO)NC(=O)[C@H](Cc2c[nH]c3c(Cl)cccc23)NC(=O)[C@H](Cc2ccncc2)NC(=O)[C@H](CC(N)=O)NC(=O)[C@H](CCC(=O)O)N(C)C(=O)[C@H](Cc2c[nH]c3ccccc23)NC(=O)[C@@H]2CNCCN2C(=O)[C@H](Cc2ccncc2)NC1=O [SEQ ID NO. 69] (cyclo([4Pal][Trp(7-Cl)][αMeS][Phe(4-COOH)]Y[Sar][Trp(βS-Me,7-OMe)][Acbc(cis-1,3)][Nle][4Pal][Pip(4-aza)]W[NMeE]N))	1.6 nM
CCCC[C@@H]1NC(=O)[C@@H]2CC[C@@H](C2)NC(=O)[C@H]([C@@H](C)c2c[nH]c3c(OC)cccc23)NC(=O)CN(C)C(=O)[C@H](Cc2ccc(N3CCN(C(C)=O)CC3)cc2)NC(=O)[C@H](Cc2ccc(C(=O)O)cc2)NC(=O)[C@](C)(CO)NC(=O)[C@H](Cc2c[nH]c3c(Cl)cccc23)NC(=O)[C@H](Cc2ccncc2)NC(=O)[C@H](CC(N)=O)NC(=O)[C@H](CCC(=O)O)N(C)C(=O)[C@H](Cc2c[nH]c3ccccc23)NC(=O)[C@@H]2CNCCN2C(=O)[C@H](Cc2ccncc2)NC1=O [SEQ ID NO. 63] (cyclo([4Pal][Trp(7-Cl)][αMeS][Phe(4-COOH)][Phe(4-(4-Ac-piperazinyl))][Sar][Trp(βS-Me,7-OMe)][X1][Nle][4Pal][Pip(4-aza)]W[NMeE]N))	1.2 nM
CCCC[C@@H]1NC(=O)CSC[C@@H](C(N)=O)NC(=O)[C@H]([C@@H](C)c2c[nH]c3c(OC)cccc23)NC(=O)CN(C)C(=O)[C@H](Cc2ccc(O)cc2)NC(=O)[C@H](Cc2ccc(C(=O)O)cc2)NC(=O)[C@](C)(CO)NC(=O)[C@H](Cc2c[nH]c3c(Cl)cccc23)NC(=O)[C@H](Cc2ccncc2)NC(=O)[C@H](CCC(=O)N(C)C)NC(=O)[C@H](CCC(=O)O)N(C)C(=O)[C@H](Cc2c[nH]c3ccccc23)NC(=O)[C@@H]2CNCCN2C(=O)[C@H](Cc2ccncc2)NC1=O [SEQ ID NO. 75] ({CH2CO}-[Nle][4Pal][Pip(4-aza)]W[NMeE]E(NMe2)[4Pal][Trp(7-Cl)][αMeS][Phe(4-COOH)]Y[Sar][Trp(βS-Me,7-OMe)]C-NH2; thioether N-14)	6.1 nM
COc1cccc2c([C@H](C)[C@@H]3NC(=O)CN(C)C(=O)[C@H](Cc4ccc(O)cc4)NC(=O)[C@H](Cc4ccc(C(=O)O)cc4)NC(=O)[C@](C)(CO)NC(=O)[C@H](Cc4c[nH]c5c(Cl)cccc45)NC(=O)[C@H](Cc4ccncc4)NC(=O)[C@H](CC(N)=O)NC(=O)[C@H](CCC(=O)O)N(C)C(=O)[C@H](Cc4c[nH]c5ccccc45)NC(=O)[C@@H]4CCCCN4C(=O)[C@H](Cc4ccncc4)NC(=O)[C@H](CCCC[N+](C)(C)C)NC(=O)[C@@H]4CC[C@@H](C4)NC3=O)c[nH]c12 [SEQ ID NO. 47] (cyclo([4Pal][Pip]W[NMeE]N[4Pal][Trp(7-Cl)][αMeS][Phe(4-COOH)]Y[Sar][Trp(βS-Me,7-OMe)][X1][Lys(Me3)]))	1.9 nM
